Measurements: USRE45340E1, “Lentil plants having increased resistance to imidazolinone herbicides” (University of Saskatchewan, priority 2001, dated 2015)

Columns and labels:
transgenic rice = conditions: cited from earlier work
AHAS [1] = experiment: Inhibition of AHAS activity in wild type CDC Richlea lentil by imidazolinone herbicides; type: biochemical, lentil (Lens culinaris); conditions: wild type CDC Richlea lentil variety; increasing herbicide concentrations (FIG. 4, FIG. 5)
Description: (§1) FIG. 4 is a graph showing the inhibition of AHAS activity in RH44 and CDC Richlea lentil plants by increasing concentrations of imazapic.
(§2) FIG. 5 is a graph showing the inhibition of AHAS activity in RH44 and CDC Richlea lentil plants by increasing concentrations of imazethapyr.
(§3) The AHAS activity in the wild type CDC Richlea lentil variety was inhibited by imazapic (CADRE®)) (FIG. 4) and imazethapyr (PURSUIT®) (FIG. 5) representative of all imidazolinone herbicides.

AHAS [2] = experiment: Inhibition of AHAS activity in RH44 lentil by imidazolinone herbicides; type: biochemical, lentil (Lens culinaris); conditions: RH44 lentil variety, compared with wild type CDC Richlea (FIG. 4, FIG. 5)
Description: as §1, §2, §3
It is therefore likely that the gene primarily responsible for AHAS activity in the RH44 lentil has undergone a point mutation similar to that observed in corn, wheat and canola. This has made the isozyme coded for by this sequence resistant to imidazolinone inhibition. The wild type isozyme has no such mutation and therefore is susceptible to imidazolinone herbicide. Such a scenario would explain why AHAS activity drops 30 to 40% with the addition of maximum concentrations of imidazolinone herbicides.

AHAS [3] = experiment: Negative feedback inhibition assay of AHAS activity; type: biochemical, RH44 lentil and CDC Richlea lentil varieties; conditions: leucine and valine addition (FIG. 3)
Description: FIG. 3 is a graph showing the inhibition of AHAS activity in RH44 and CDC Richlea lentil plants by a negative feedback inhibition assay.
The responses of the RH44 lentil variety and the CDC Richlea variety were identical in a negative feedback inhibition assay. As described earlier, AHAS is an enzyme active in the biosynthesis of leucine and valine. Under conditions of excess leucine and/or valine, the activity of AHAS is diminished. The ability of leucine and valine addition to inhibit AHAS activity was the same in the RH44 lentil and CDC Richlea lentil varieties, indicating very similar levels of expression and a lack of any discernible difference in AHAS function (FIG. 3).

COc1nc(C)nc(NC(=O)NS(=O)(=O)c2ccccc2Cl)n1 [chlorsulfuron]
differences in in vitro resistance (transgenic rice; Arabidopsis ALS promoter replaced with the CaMV35S promoter): 40 fold
increase in in vitro resistance (transgenic rice; transgenic rice containing a 35S/ALS transgene): 200 fold

Cc1cnc(C2=NC(=O)C(C)(C(C)C)N2)c(C(=O)O)c1 (centres unmarked) [imazapic]
inhibition of AHAS activity (AHAS [1]): inhibited
inhibition of AHAS activity (AHAS [2]): not to the same extent as for the wild type lentil CDC Richlea

CCc1cnc(C2=NC(C)(C(C)C)C(=O)N2)c(C(=O)O)c1 (centres unmarked) [imazethapyr]
inhibition of AHAS activity (AHAS [1]): inhibited
inhibition of AHAS activity (AHAS [2]): not to the same extent as for the wild type lentil CDC Richlea

CC(C)C[C@H](N)C(=O)O [leucine]
ability to inhibit AHAS activity, RH44 versus CDC Richlea (AHAS [3]): the same

CC(C)[C@H](N)C(=O)O [valine]
ability to inhibit AHAS activity, RH44 versus CDC Richlea (AHAS [3]): the same
